Structures are written as SMILES. Converted amounts (≈) assume the structure as drawn.

The target in experiment [1] is T1, leucyl t-RNA synthetase (LeuRS) (Mycobacterium tuberculosis, UniProt P9WFV1).
T1 construct: purchased Sigma-Aldrich
In words: biochemical. The experiment is classed as binding. The conditions noted are these: for Binding Enthalpy ΔH / Kd: ITC; for Kd: pH 7.0, read-out: Floating Association Constant ka (converted).

The test system of experiment [2] is Mycobacterium tuberculosis strain H37Rv (ATCC 25618). In words: Antimycobacterial activity, well diffusion method. The experiment is classed as cell-based. The conditions noted are these: LJM agar, 6 weeks; for MIC: Mycobacterium tuberculosis. A general note: A growth-free zone around the sample is the usual read-out of agar diffusion tests.
The test system of experiment [3] is Wild-type Mycobacterium tuberculosis biofilm. In words: Inhibition of mycobacterial biofilm formation (crystal violet).
The subject of experiment [4] is Leucyl-tRNA synthetase mRNA. In words: Leucyl t-RNA synthetase gene expression inhibition (qPCR). It is filed as cell-based. The conditions noted are these: A549 cells, 25 µL (10 mM) overnight, RT-PCR, in words. For orientation: Quantitative PCR measures a nucleic acid by following its amplification.
Setting [5] is: Conc. of Ligand/Protein 0.0125 µM.
Where [6] appears, read: Conc. of Ligand/Protein 0.025 µM.
[7] abbreviates: Conc. of Ligand/Protein 0.050 µM.
The mark [8] stands for this setting: Conc. of Ligand/Protein 0.100 µM.
The mark [9] stands for this setting: Conc. of Ligand/Protein 0.200 µM.
Setting [10] is: Conc. of Ligand/Protein 0.400 µM.
Where [11] appears, read: Conc. of Ligand/Protein 0.800 µM.
Setting [12] is: Conc. of Ligand/Protein 1.600 µM.
[13] abbreviates: Conc. of Ligand/Protein 3.20 µM.
Setting [14] is: Conc. of Ligand/Protein 5.00 µM.

T1 sequence (P9WFV1 whole entry): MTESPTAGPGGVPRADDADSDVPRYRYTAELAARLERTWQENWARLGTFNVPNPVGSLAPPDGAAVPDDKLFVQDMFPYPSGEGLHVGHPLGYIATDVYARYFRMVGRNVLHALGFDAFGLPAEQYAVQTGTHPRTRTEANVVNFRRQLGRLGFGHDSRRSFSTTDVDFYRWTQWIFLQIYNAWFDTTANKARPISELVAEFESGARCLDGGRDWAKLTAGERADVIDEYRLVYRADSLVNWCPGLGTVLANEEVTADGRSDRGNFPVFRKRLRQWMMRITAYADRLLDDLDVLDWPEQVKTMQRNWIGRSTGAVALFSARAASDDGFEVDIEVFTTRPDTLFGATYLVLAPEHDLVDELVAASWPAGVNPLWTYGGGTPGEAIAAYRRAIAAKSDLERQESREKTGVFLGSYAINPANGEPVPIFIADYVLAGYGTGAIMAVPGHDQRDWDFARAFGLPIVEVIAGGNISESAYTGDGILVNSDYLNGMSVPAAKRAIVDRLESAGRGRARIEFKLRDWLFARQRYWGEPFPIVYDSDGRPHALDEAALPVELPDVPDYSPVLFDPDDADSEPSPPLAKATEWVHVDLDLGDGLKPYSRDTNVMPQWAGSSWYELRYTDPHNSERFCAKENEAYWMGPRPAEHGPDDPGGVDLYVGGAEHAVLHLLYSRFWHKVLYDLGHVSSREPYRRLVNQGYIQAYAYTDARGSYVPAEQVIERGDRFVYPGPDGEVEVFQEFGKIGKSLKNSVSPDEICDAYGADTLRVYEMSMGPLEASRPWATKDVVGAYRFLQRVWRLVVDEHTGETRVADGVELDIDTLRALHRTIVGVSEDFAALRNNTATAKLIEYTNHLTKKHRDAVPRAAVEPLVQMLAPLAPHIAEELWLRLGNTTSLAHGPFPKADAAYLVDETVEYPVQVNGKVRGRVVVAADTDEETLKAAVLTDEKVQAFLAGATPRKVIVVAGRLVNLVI

In general, MIC refers to the smallest concentration in the dilution series that meets the test's criterion for growth inhibition. Take `NCC[C@H](O)C(=O)N[C@@H]1C[C@H](N)[C@@H](O[C@H]2O[C@H](CN)[C@@H](O)[C@H](O)[C@H]2O)[C@H](O)[C@H]1O[C@H]1O[C@H](CO)[C@@H](O)[C@H](N)[C@H]1O` [Compound 2077, (S)-4-amino-N-((1R,2S,3S,4R,5S)-5-amino-2-(((2S,3R,4S,5S,6R)-4-amino-3,5-dihydroxy-6-(hydroxymethyl)tetrahydro-2H-pyran-2-yl)oxy)-4-(((2R,3R,4S,5S,6R)-6-(aminomethyl)-3,4,5-trihydroxytetrahydro-2H-pyran-2-yl)oxy)-3-hydroxycyclohexyl)-2-hydroxybutanamide]: the “ΔH for Ligands” value is -84.16 kJ/mol in experiment [1] (Conc. of Ligand/Protein 00 µM); -80.13 kJ/mol in experiment [1] (setting [5]); -73.79 kJ/mol in experiment [1] (setting [6]); -61.36 kJ/mol in experiment [1] (setting [7]); -55.16 kJ/mol in experiment [1] (setting [8]); -41.42 kJ/mol in experiment [1] (setting [9]). For the same compound, the “ΔH for Ligands” value in experiment [1] (setting [10]) was -31.25 kJ/mol; in experiment [1] (setting [11]), -20.16 kJ/mol; in experiment [1] (setting [12]), -13.45 kJ/mol; in experiment [1] (setting [13]), -10.36 kJ/mol; in experiment [1] (setting [14]), 00 kJ/mol. In addition, in experiment [1] (25 °C, pH 7.0, fitted), the “Binding Enthalpy ΔH” value was -49.87 kJ/mol. Also, the Kd in experiment [1] (25 °C) is 129 µM. Besides, in experiment [2], the “Zone of Inhibition” value is given as 15.57 ± 0.80 mm. This compound also came in with an MIC in experiment [2] of 147.4 ± 0.8 µg/mL (≈ 252 µM). Further, the “OD (biofilm formation)” value is 0.7588 in experiment [3] (Conc. 5.0 (unit not given)); 0.5358 in experiment [3] (Conc. 10.0 (unit not given)); 0.3585 in experiment [3] (Conc. 15.0 (unit not given)); 0.2544 in experiment [3] (Conc. 20.0 (unit not given)); 0.1456 in experiment [3] (Conc. 25.0 (unit not given)).

On to `CC(C)C(N)C(=O)OCC(CO)OCn1cnc2c(=O)[nH]c(N)nc21` (stereo not drawn) [Compound 1035, 2-((2-amino-6-oxo-1H-purin-9(6H)-yl)methoxy)-3-hydroxypropyl 2-amino-3-methylbutanoate], for which the “ΔH for Ligands” value in experiment [1] (Conc. of Ligand/Protein 00 µM) is -86.84 kJ/mol; in experiment [1] (setting [5]) it was -81.65 kJ/mol; in experiment [1] (setting [6]) it was -75.56 kJ/mol; in experiment [1] (setting [7]), -63.41 kJ/mol; in experiment [1] (setting [8]), -57.85 kJ/mol; in experiment [1] (setting [9]) it was -43.88 kJ/mol. In addition, the “ΔH for Ligands” value in experiment [1] (setting [10]) is -34.16 kJ/mol; in experiment [1] (setting [11]), -23.10 kJ/mol; in experiment [1] (setting [12]) it was -16.25 kJ/mol; in experiment [1] (setting [13]), -12.65 kJ/mol; in experiment [1] (setting [14]), 00 kJ/mol. In addition, the “Binding Enthalpy ΔH” value in experiment [1] (25 °C, pH 7.0, fitted) is -49.16 kJ/mol. Besides, the Kd in experiment [1] (25 °C) was 23.9 µM. The “Zone of Inhibition” value in experiment [2] is 13.68 ± 0.21 mm. In experiment [2], this compound returned an MIC of 119.87 ± 0.1 µg/mL (≈ 338 µM). Moreover, the “OD (biofilm formation)” value is listed as 0.7685 in experiment [3] (Conc. 5.0 (unit not given)); 0.6255 in experiment [3] (Conc. 10.0 (unit not given)); 0.5454 in experiment [3] (Conc. 15.0 (unit not given)); 0.3256 in experiment [3] (Conc. 20.0 (unit not given)); 0.1854 in experiment [3] (Conc. 25.0 (unit not given)).

Regarding `OB1OCc2cc(F)ccc21` [AN2690], the “LeuRS gene expression (copies of mRNA per cycle)” value in experiment [4] is recorded as “lower copies of LeuRS”. In addition, the “OD (biofilm formation)” value in experiment [3] (Conc. 5.0 (unit not given)) is 0.4256; in experiment [3] (Conc. 10.0 (unit not given)), 0.3658; in experiment [3] (Conc. 15.0 (unit not given)), 0.2452; in experiment [3] (Conc. 20.0 (unit not given)), 0.2048; in experiment [3] (Conc. 25.0 (unit not given)), 0.0980.

Take `CC(C)(N)C(=O)N[C@H](Cc1c[nH]c2ccccc12)C(=O)N[C@H](Cc1c[nH]c2ccccc12)NC=O` [Compound 1054, 2-amino-N-((R)-1-(((R)-1-formamido-2-(1H-indol-3-yl)ethyl)amino)-3-(1H-indol-3-yl)-1-oxopropan-2-yl)-2-methylpropanamide]: the “LeuRS gene expression (copies of mRNA per cycle)” value in experiment [4] is “more effective in down-regulating the LeuRS gene”. Besides, the “ΔH for Ligands” value in experiment [1] (Conc. of Ligand/Protein 00 µM) was -82.11 kJ/mol; in experiment [1] (setting [5]), -76.15 kJ/mol; in experiment [1] (setting [6]) it was -68.25 kJ/mol; in experiment [1] (setting [7]) it was -60.11 kJ/mol; in experiment [1] (setting [8]) it was -52.27 kJ/mol; in experiment [1] (setting [9]) it was -41.25 kJ/mol. For the same compound, the “ΔH for Ligands” value in experiment [1] (setting [10]) is -29.73 kJ/mol; in experiment [1] (setting [11]) it was -20.46 kJ/mol; in experiment [1] (setting [12]), -13.16 kJ/mol; in experiment [1] (setting [13]) it was -10.42 kJ/mol; in experiment [1] (setting [14]), 00 kJ/mol. Also, the “Binding Enthalpy ΔH” value was -48.23 kL/mol in experiment [1] and -48.23 kJ/mol in experiment [1] (25 °C, pH 7.0, fitted). Further, in experiment [1] (25 °C), the Kd was 0.158 µM. Also, the “Zone of Inhibition” value in experiment [2] stood at 18.45 ± 0.19 mm. The compound further registered an MIC in experiment [2] of 186.4 ± 0.21 µg/mL (≈ 393 µM). Also, the “OD (biofilm formation)” value in experiment [3] (Conc. 5.0 (unit not given)) came out at 0.5428; in experiment [3] (Conc. 10.0 (unit not given)), 0.4548; in experiment [3] (Conc. 15.0 (unit not given)) it was 0.3425; in experiment [3] (Conc. 20.0 (unit not given)), 0.2186; in experiment [3] (Conc. 25.0 (unit not given)), 0.1254. Besides, in experiment [3] (in words, compared to control / other compounds), the “biofilm formation inhibitory activity” value is listed as “higher inhibition in biofilm formation”.

Source of the values: article PMC11201714, “Insights into the Effects of Ligand Binding on Leucyl-tRNA Synthetase Inhibitors for Tuberculosis: In Silico Analysis and Isothermal Titration Calorimetry Validation” (Biomolecules, 2024).
